Holding throughout (type): functional
For one experiment, the system named is Enterococcus faecium. The experiment in a line: Antibacterial activity against Enterococcus faecium MMC4 after 24 hrs by broth microdilution method. The conditions noted are these: MMC4, 24 h. A general note: In broth dilution the organism is exposed to a series of concentrations in liquid medium.
In a further experiment the test system is Klebsiella aerogenes. The experiment can be described thus: Antibacterial activity against Enterobacter aerogenes after 24 hrs by broth microdilution method.
In the next experiment the test system is Pseudomonas aeruginosa. The experiment in a line: Antibacterial activity against Pseudomonas aeruginosa PAO1 after 24 hrs by broth microdilution method. The conditions noted are these: PAO1, 24 h.
The subject of the next experiment is Klebsiella pneumoniae. The experiment in a line: Antibacterial activity against Klebsiella pneumoniae BAMS clinical isolate 07-18 after 24 hrs by broth microdilution method. The following applies: BAMS clinical isolate 07-18, 24 h.
Another experiment relates to Acinetobacter baumannii. The experiment can be described thus: Antibacterial activity against Acinetobacter baumannii WRAIR clinical isolate 13 after 24 hrs by broth microdilution method. The conditions noted are these: WRAIR clinical isolate 13, 24 h.
The test system of another experiment is Staphylococcus aureus. The experiment can be described thus: Antibacterial activity against methicillin-sensitive Staphylococcus aureus UAMS-1 after 24 hrs by broth microdilution method. The following applies: UAMS-1, 24 h.

The structures appear in SMILES notation. Values after ≈ are worked out from the molar mass of the structure shown. Square brackets hold non-standard residues; d marks the D form. Peptide text beside a SMILES is read from it. * marks the point of attachment. ξ: configuration not given here. X3 = NCCCC[C@H](NC(=O)[C@H](CCCCN)NC(=O)[C@H](CCCCN)NC(=O)[C@H](CCCCN)NCCCC(=O)[C@@H]1Cc2ccccc2CN1*)C(N)=O; X6 = NCCCC[C@H](NC(=O)[C@H](CCCCN)NC(=O)[C@H](CCCCN)NC(=O)[C@H](CCCCN)NCCC(=O)[C@@H]1Cc2ccccc2CN1*)C(N)=O; Pro(3ξ,4ξ-(CH2)4) = O=C(O)[C@H]1NCC2CCCCC21; Tic = O=C(O)[C@@H]1Cc2ccccc2CN1 Where only a bound is given, the exact number is not on record here.

Usually MBC stands for the lowest tested concentration that kills the bacteria rather than only halting them. As a reminder, the MIC is the lowest concentration that inhibits growth of the organism. As to `CC(=O)NCC(=O)N[C@@H](Cc1ccccc1)C(=O)N1Cc2ccccc2C[C@H]1C(=O)N1CC2CCCCC2[C@H]1C(=O)NCC(=O)N[C@@H](CCCCN)C(=O)N1Cc2ccccc2C[C@H]1C(=O)N1CC2CCCCC2[C@H]1C(=O)NCC(=O)N[C@@H](Cc1ccccc1)C(=O)N1Cc2ccccc2C[C@H]1C(=O)N1CC2CCCCC2[C@H]1C(=O)NCC(=O)N[C@@H](CCCCN)C(=O)N1Cc2ccccc2C[C@H]1C(=O)CCCN[C@@H](CCCCN)C(=O)N[C@@H](CCCCN)C(=O)N[C@@H](CCCCN)C(=O)N[C@@H](CCCCN)C(N)=O` (stereo partly specified) (Ac-GF[Tic][Pro(3ξ,4ξ-(CH2)4)]GK[Tic][Pro(3ξ,4ξ-(CH2)4)]GF[Tic][Pro(3ξ,4ξ-(CH2)4)]GK-X3), the MBC in the experiment on Enterococcus faecium was greater than 100 µg/mL; in the experiment with Klebsiella aerogenes it was greater than 100 µg/mL; in the experiment on Pseudomonas aeruginosa, greater than 100 µg/mL; against Klebsiella pneumoniae, greater than 100 µg/mL; in the experiment on Acinetobacter baumannii, 50 µg/mL (≈ 20.1 µM); with Staphylococcus aureus it was greater than 100 µg/mL. The MIC with Enterococcus faecium is 50 µg/mL (≈ 20.1 µM); against Klebsiella aerogenes, greater than 100 µg/mL; in the experiment on Pseudomonas aeruginosa it was greater than 100 µg/mL; against Klebsiella pneumoniae, greater than 100 µg/mL; in the experiment with Acinetobacter baumannii, 12.5 µg/mL (≈ 5.03 µM); against Staphylococcus aureus it was greater than 100 µg/mL.
On to `CC(=O)NCC(=O)N[C@@H](Cc1ccccc1)C(=O)N1Cc2ccccc2C[C@H]1C(=O)N1CC2CCCCC2[C@H]1C(=O)NCC(=O)N[C@@H](CCCCN)C(=O)N1Cc2ccccc2C[C@H]1C(=O)N1CC2CCCCC2[C@H]1C(=O)NCC(=O)N[C@@H](Cc1ccccc1)C(=O)N1Cc2ccccc2C[C@H]1C(=O)N1CC2CCCCC2[C@H]1C(=O)NCC(=O)N[C@@H](CCCCN)C(=O)N1Cc2ccccc2C[C@H]1C(=O)CCN[C@@H](CCCCN)C(=O)N[C@@H](CCCCN)C(=O)N[C@@H](CCCCN)C(=O)N[C@@H](CCCCN)C(N)=O` (stereo partly specified) (Ac-GF[Tic][Pro(3ξ,4ξ-(CH2)4)]GK[Tic][Pro(3ξ,4ξ-(CH2)4)]GF[Tic][Pro(3ξ,4ξ-(CH2)4)]GK-X6), for which the MBC with Enterococcus faecium was 50 µg/mL (≈ 20.3 µM); against Klebsiella aerogenes it was greater than 100 µg/mL; against Pseudomonas aeruginosa, greater than 100 µg/mL; in the experiment with Klebsiella pneumoniae, greater than 100 µg/mL; with Acinetobacter baumannii, 25 µg/mL (≈ 10.1 µM); in the experiment on Staphylococcus aureus, greater than 100 µg/mL. For the same compound, the MIC against Enterococcus faecium is 12.5 µg/mL (≈ 5.06 µM); in the experiment with Klebsiella aerogenes, greater than 100 µg/mL; in the experiment on Pseudomonas aeruginosa, greater than 100 µg/mL; against Klebsiella pneumoniae it was greater than 100 µg/mL; against Acinetobacter baumannii, 12.5 µg/mL (≈ 5.06 µM); in the experiment with Staphylococcus aureus it was greater than 100 µg/mL.
Take `CC(=O)NCC(=O)N[C@@H](Cc1ccccc1)C(=O)N1Cc2ccccc2C[C@H]1C(=O)N1CC2CCCCC2[C@H]1C(=O)NCC(=O)N[C@@H](CCCCN)C(=O)N1Cc2ccccc2C[C@H]1C(=O)N1CC2CCCCC2[C@H]1C(=O)NCC(=O)N[C@@H](Cc1ccccc1)C(=O)N1Cc2ccccc2C[C@H]1C(=O)N1CC2CCCCC2[C@H]1C(=O)NCC(=O)N[C@@H](CCCCN)C(=O)N1Cc2ccccc2C[C@H]1C(=O)N[C@@H](CCCCN)C(=O)N[C@@H](CCCCN)C(=O)N[C@@H](CCCCN)C(N)=O` (stereo partly specified) (Ac-GF[Tic][Pro(3ξ,4ξ-(CH2)4)]GK[Tic][Pro(3ξ,4ξ-(CH2)4)]GF[Tic][Pro(3ξ,4ξ-(CH2)4)]GK[Tic]KKK-NH2): the MBC is 100 µg/mL (≈ 43.2 µM) with Enterococcus faecium; greater than 100 µg/mL against Klebsiella aerogenes; greater than 100 µg/mL with Pseudomonas aeruginosa; greater than 100 µg/mL in the experiment on Klebsiella pneumoniae; 50 µg/mL (≈ 21.6 µM) in the experiment with Acinetobacter baumannii; greater than 100 µg/mL with Staphylococcus aureus. For the same compound, the MIC is 25 µg/mL (≈ 10.8 µM) against Enterococcus faecium; greater than 100 µg/mL against Klebsiella aerogenes; greater than 100 µg/mL against Pseudomonas aeruginosa; 100 µg/mL (≈ 43.2 µM) against Klebsiella pneumoniae; 12.5 µg/mL (≈ 5.4 µM) against Acinetobacter baumannii; 100 µg/mL (≈ 43.2 µM) in the experiment on Staphylococcus aureus.

These data come from ChEMBL document CHEMBL2375306, “Antimicrobial peptides containing unnatural amino acid exhibit potent bactericidal activity against ESKAPE pathogens” (Bioorg Med Chem, 2013).
